We go through 2 compounds from US20200253996A1, “TCTP INHIBITING AGENTS FOR THE TREATMENT OF PROLIFERATIVE DISEASES, INFECTIOUS DISEASES, ALLERGIES, INFLAMMATIONS AND/OR ASTHMA” (UNIVERSITE PARIS-SUD, priority 2017, published 2020).

Series [1] deals with human cancer line HCT116 (colorectal carcinoma). Kind of series: Cytotoxic activity on HCT116, 72 hours incubation. Type of series: cell-based. The protocol:
The cytotoxic activity of the prepared compounds was evaluated on the human cancer line HCT116 (colorectal carcinoma). The selected line was incubated at 37° C. in the presence of one of the prepared compounds added to the culture medium at various concentrations. The inhibitory concentration inducing 50% cell death (IC50) was determined after 72 hours incubation for each compound (Table 1).

Series [2] has as its target T1, TCTP (Homo sapiens, UniProt P13693).
T1 sequence (P13693 1-172): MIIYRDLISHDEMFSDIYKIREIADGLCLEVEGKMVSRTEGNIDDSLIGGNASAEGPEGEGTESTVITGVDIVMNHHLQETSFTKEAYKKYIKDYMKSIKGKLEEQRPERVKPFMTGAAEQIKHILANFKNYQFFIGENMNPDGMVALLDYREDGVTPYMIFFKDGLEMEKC
Kind of series: Interaction with TCTP by surface plasmon resonance (SPR), Biacore T200. Type of series: binding. The protocol:
The interaction of the synthesized molecules with TCTP was evaluated by the surface plasmon resonance (SPR) technique using the Biacore T200 apparatus.
A beam of polarized monochromatic light illuminates a glass interface between two media with different refractive indices, since the angle of incidence is greater than the limiting angle, all the light is reflected, a phenomenon known as total internal reflection. There is then no refraction but an electromagnetic component of the light, the evanescent wave propagates over a distance equivalent to its own wavelength, perpendicular to the interface. At the level of the gold leaf located at the interface between the two media, a resonance between the gold plasmons and the evanescent wave is observed, which results in a loss of light energy in the beam reflected at a precise angle called the resonance angle. This angle is sensitive to the refractive index of the medium wherein the evanescent wave propagates.
A continuous measurement of the variations in the angle of refraction is carried out using a micro-refractometer producing a sensorgram that allows the fixation of the molecules injected into the microfluidic cell to be monitored in real time. The resonance signal is expressed in resonance units (RU) and reports what is present at a given time in the microfluidic cell.
Thus, TCTP is bonded to a chip consisting of a layer of dextran on a gold foil, which in turn is placed on a glass plate. This layer is sandwiched between a microfluidic cell and a prism.
The synthesized compounds are passed through the microfluidic cell and their interaction is evaluated through the received SPR signal (Table 1).

A further series concerns p53 protein. Put plainly: Overexpression of p53 protein, Western blot. Type of series: cell-based. The settings on record: 10 μM. How it is done: The compound AC014 is capable of inducing overexpression of p53 (FIG. 1).
The Western blot was carried out according to the protocol described in the following article: Amson R, Pece S, Lespagnol A, Vyas R, Mazzarol G, Tosoni D, Colaluca I, Viale G, Rodrigues-Ferreira S, Wynendaele J, Chaloin O, Hoebeke J, Marine J C, Di Fiore P P, Telerman A. Nat Med. 2011 Dec. 11; 18(1):91-9.
The following antibodies were used in the Western blot assay: anti-TCTP antibodies were generated against the whole human-derived TCTP. These polyclonal antibodies were purified by affinity column affinity coupled to TCTP (Agro-Bio). Anti-P53 1C12 mouse antibody (Cell Signaling Technology) was used at a dilution of 1/1000.
Secondary antibodies (antirabbit and antimouse) conjugated to HRP were used at a dilution of 1/5000 to visualize the signals by Western blots.
A general note: A western blot detects proteins with antibodies after separation by electrophoresis.

In series [3] the target is T1, TCTP. The settings on record: prior art section; read-out: affinity for TCTP, Kd; cited from earlier work.
The subject of another series is human HCT116 cells. Put plainly: Inhibition of cell growth, CellTiter Glo assay. The settings on record: for GI50: Homo sapiens. How it is done:
The viability and proliferation of human HCT116 cells is measured using the “CellTiter Glo®” assay (Promega), which is a luminescent measure of the number of living cells. Sertraline and AC070 were tested at 10 concentrations and results are expressed as GI50, TGI, LC50 and IC50 relative to control cells (DMSO).
The CellTiter-Glo® assay is a homogeneous method for determining the number of viable cells in culture based on a quantification of the ATP present, an indicator of metabolically active cells. The homogeneous test procedure involves the addition of a single reagent (the CellTiter-Glo® reagent) directly to the cultured cells in serum-enriched medium.
The results of the test are reported in the following Tables 2 and 3 (Table 2: sertraline and Table 3: AC070): […]
Background: In ATP-based viability assays light output follows the ATP content of the culture.

For series [4] the following is noted: humans; cited from earlier work.

As usually defined, the IC50 is the concentration at which inhibition is half-maximal. Read a high IC50 as a need for much substance. A word on the Kd: it is the concentration at which binding is half-saturated. A word on the GI50: it is the concentration giving 50% growth inhibition.

Like-named read-outs stand apart in the source and are kept apart here.

For `c1ccc2c(c1)CCCC2c1ccc2ccccc2c1` (centres unmarked) [AC014, 1,2,3,4-tetrahydro-1,2′-binaphthalene], the half-inhibitory concentration (IC50) in series [1] (Homo sapiens, HCT-116, HCT116, 72 hours incubation, concentration inducing 50% cell death) was 8000 ± 1000 nM. For the same compound, the “antiproliferative activity profile (in words)” value in series [1] (compared with sertraline) was “identical to that of sertraline”. Besides, the “affinity for TCTP (in words)” value at TCTP [2] is listed as “excellent affinity”. For the same compound, the Kd at TCTP [2] (TCTP bonded to chip, Biacore T200) was determined as 7000 ± 3000 nM. Also, in the series on p53 protein, the “expression of the p53 protein” value is listed as “induces” and the “induction of p53 compared to sertraline” value is reported as “more pronounced”.
Consider `CN[C@H]1CC[C@@H](c2ccc(Cl)c(Cl)c2)c2ccccc21` [sertraline, reference compound], for which the Kd at TCTP [3] was 198000 nM. For the same compound, the TGI50 1 with human HCT116 cells (HCT116, CellTiter Glo, determination 1) turned out to be 0.203 µM. In the series on human HCT116 cells (HCT116, CellTiter Glo, determination 2), this compound yielded a TGI50 2 of 0.229 µM. This compound also yielded a TGI50 3 in the series with human HCT116 cells (HCT116, CellTiter Glo, determination 3) of 0.253 µM. The TGI50 Mean with human HCT116 cells (HCT116, CellTiter Glo, mean) came to 0.228 µM. This compound showed a TGI50 Median with human HCT116 cells (HCT116, CellTiter Glo, median) of 0.227 µM. Also, the GI50 was found to be 125 nM in the series with human HCT116 cells (HCT-116, read-out: GI50 1); 141 nM in the series on human HCT116 cells (HCT-116, read-out: GI50 2); 159 nM in the series with human HCT116 cells (HCT-116, read-out: GI50 3); 142 nM with human HCT116 cells (HCT-116, read-out: GI50 Mean); 140 nM in the series with human HCT116 cells (HCT-116, read-out: GI50 Median); 141 nM in the series on human HCT116 cells (HCT-116, read-out: cell growth inhibition constant GI50). In series [4], the “maximum tolerated dose (MTD)” value was 400 mg/day. The “expression of the p53 protein” value in the series on p53 protein was “induced”.
